Assay results: US20240302353A1, “CELL CULTURE DEVICE, KIT FOR CELL CULTURE, AND CELL CULTURE METHOD” (FUJIFILM Corporation, priority 2021, published 2024)

Test system: intestinal epithelial cells F-hiSIEC
Experiment: Permeation test of Lucifer yellow across intestinal epithelial cell sheet on cell culture insert
Type: in vitro ADME
Details: for Permeability coefficient (Papp) Average (mean): 110 μM Lucifer yellow/HBSS, 37° C., 1 hour
Method: One gas absorbent (oxygen scavenger) (Anaeropack: Mitsubishi Chemical Corporation) was installed in the upper tank of the cell culture device in FIG. 1, the upper tank portion was sealed, and the sealed upper tank portion was installed on the 6-well plate, which was the lower tank portion. In addition, intestinal epithelial cells F-hiSIEC (FUJIFILM Corporation) were seeded on a cell culture insert (Millipore) coated with Matrigel, and cultured for 9 days according to a manual using F-hiSIEC Culture Medium (FUJIFILM Corporation). 150 μL of F-hiSIEC Culture Medium (FUJIFILM Corporation) was added to an upper surface of the cell culture insert on which the cells on the 9th day of the culture had been seeded, and the cell culture insert was installed in the device from a lower side of the upper tank of the device, using the insertion tool shown in FIG. 5. While sandwiching the cell culture insert, 1 mL of a culture medium was added to a well plate of the lower tank, the upper tank portion of the device was installed in the well plate, and the entire device was placed in a CO2 incubator for culture for 72 hours. After the culture, a trans-epithelial electrical resistance (TEER) value of the intestinal epithelial cells was measured with an EVOM2 system. In addition, the permeation rate (Papp) of Lucifer yellow and the gene expression of various intestinal epithelial cell markers were compared with cells cultured under aerobic conditions in both the upper tank and the lower tank. The aerobic conditions in the upper tank and the lower tank mean cells cultured by installing a lid attached to the well plate without using the co-culture device. In the permeation test of Lucifer yellow, the upper and lower culture media in the insert containing the cells are substituted with HBSS and incubated at 37° C. for 1 hour. […] After 1 hour, the amount of substance which had passed through the lower part of the cell culture insert was quantified by a plate reader (Enspire, PerkinElmer Inc.), and the permeation rate and the permeability coefficient (Papp) were calculated.

## Lucifer yellow
F-hiSIEC cells cultured 72 hours in the cell culture device (upper tank anaerobic, lower tank aerobic)
  Permeability coefficient (Papp) Average (mean): 1.54 ×10⁻⁶ cm/s
F-hiSIEC cells cultured 72 hours under aerobic conditions in both upper and lower tank (no device)
  Permeability coefficient (Papp) Average (mean): 0.7 ×10⁻⁶ cm/s
Anaerobic vs aerobic cultured F-hiSIEC cells, 72 hours culture
  Increase of Papp in anaerobic cultured cells as compared with aerobic cells: approximately 2 times
